The values that follow come from patent publication US9744122B2, “Topical formulation for pain relief” (priority 2013, dated 2017).

Data set [1] is described as follows: absorption of mannitol through skin. Particulars: when menthol is included in the composition. The text has this: (§1) Therefore, an improved topical composition includes from 0.25% up to 20.0% of menthol, by weight.
Data set [2] addresses TRPV1 receptor (Homo sapiens, UniProt Q8NER1). Nature of the data set: inventors' own studies on mechanism of topical pain relief. Particulars: distinct from osmotic effects. The text has this: The TRPV1 receptor is present on sensory nerves in the skin and is implicated in neurogenic inflammation, acute pain and chronic pain.
Data set [3] can be described thus: testing of topical pain relief. The data set is classed as in vivo.
Excerpt: A new route of administration for mannitol for the specific indication of pain is disclosed. The topical composition allows for transdermal delivery of mannitol. […] The ingredients, including mannitol, are typically classified as natural health products.
as §1

Chain of TRPV1 receptor (Q8NER1 whole entry): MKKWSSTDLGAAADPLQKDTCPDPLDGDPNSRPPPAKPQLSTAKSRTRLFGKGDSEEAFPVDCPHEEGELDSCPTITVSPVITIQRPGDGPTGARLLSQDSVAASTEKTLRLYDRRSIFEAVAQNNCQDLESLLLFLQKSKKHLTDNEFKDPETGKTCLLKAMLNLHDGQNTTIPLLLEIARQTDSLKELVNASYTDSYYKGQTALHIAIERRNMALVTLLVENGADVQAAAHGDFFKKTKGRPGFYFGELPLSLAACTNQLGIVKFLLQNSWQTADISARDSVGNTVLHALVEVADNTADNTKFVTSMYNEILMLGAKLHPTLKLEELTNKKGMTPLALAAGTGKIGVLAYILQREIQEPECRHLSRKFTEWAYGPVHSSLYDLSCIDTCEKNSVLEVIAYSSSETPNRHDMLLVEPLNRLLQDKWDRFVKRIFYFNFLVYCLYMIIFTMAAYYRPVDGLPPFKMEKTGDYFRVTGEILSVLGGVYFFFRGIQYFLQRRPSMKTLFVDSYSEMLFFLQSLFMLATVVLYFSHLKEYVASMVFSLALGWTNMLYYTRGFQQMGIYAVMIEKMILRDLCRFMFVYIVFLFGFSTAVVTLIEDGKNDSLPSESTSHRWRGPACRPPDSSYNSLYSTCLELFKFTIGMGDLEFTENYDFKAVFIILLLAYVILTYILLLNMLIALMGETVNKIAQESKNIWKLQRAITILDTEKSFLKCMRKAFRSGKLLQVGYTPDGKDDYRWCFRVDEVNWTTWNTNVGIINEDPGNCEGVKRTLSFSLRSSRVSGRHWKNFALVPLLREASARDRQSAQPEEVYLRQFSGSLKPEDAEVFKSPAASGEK

Take `OC[C@@H](O)[C@@H](O)[C@H](O)[C@H](O)CO` [mannitol]: the absorption through skin entry in data set [1] was “much more effectively absorbed”. For the same molecule, the “effect on TRPV1 receptor” value in data set [2] is “down-regulation”. For the same molecule, the pain relief entry in data set [3] (when menthol is included in the composition) was “improved pain relief”.

For `CC1CCC(C(C)C)C(O)C1` (stereo not shown) [menthol], the “effectiveness of menthol content in the topical composition” value in data set [3] (1.25% menthol by weight) is reported as “effective”.
